Measurements: patent publication US20090239757A1, “Control Sequences Responding to AMP and Uses Thereof” (priority 2004, published 2009)
Residues, ends and D or L forms follow the SMILES beside them.

Test system: E. coli TOP10
Experiment: microarray transcription profile of E. coli TOP10 expressing Novispirin G10 (pDRS5-novispirin, arabinose induced) relative to control strain pBAD gIII A
Format: cell-based, Escherichia coli
Protocol: In order to obtain a transcriptional profile of E. coli expressing Novispirin G10, 2×10 mL sterile LB media (10 g/L Bactotryptone, 5 g/L Yeast extract, and 10 g/L NaCl) containing 100 mg/L ampicillin was inoculated with E. coli TOP10 harbouring pDRS5-novispirin and pBAD gIII A, respectively. These cultures were grown overnight at 37° C. at 180 rpm. The overnight cultures were diluted 1/100 into fresh sterile RM media (2% Casamino Acids, 0.2% glycerol, 1 mM MgCl2, 0.1 mM thiamine, 6 g/L Na2HPO4, 3 g/L KH2PO4.2H2O, 0.5 g/L NaCl, 0.1 g/L NH4Cl at pH 7.4) supplemented with 100 mg/L ampicillin and 0.1% arabinose. 100 mL of each culture was grown at 37° C., 240 rpm for 4.5 hours before being harvested by poured into centrifugation tubes containing 10 mL pre-frozen milliQ water and immediate centrifugation at 4200 g for 15 minutes at 4° C. Immediately hereafter, the supernatant was decanted and the cell […] was frozen at −20° C. for storage until RNA preparation was initiated.
Total RNA was isolated from the two E. coli (expressing either Novispirin G10 or a control peptide) cultures by use of the High Pure RNA Isolation kit (Roche, cat #1 828 665) according to the manufacturers instructions. Residual DNA was removed on-column with RNase-free DNase. Labelled samples were prepared from 30 μg of total bacterial RNA. Fluorescent first strand cDNA was prepared by random primed reverse transcription (Superscript II; Life Technologies) by use of random hexamers for cDNA synthesis. 2 μl (20 μg) of random primer was mixed with 15 μl (30 μg) of total RNA, incubated for 5 min at 70° C., and cooled on ice. To each sample was added 5× first strand buffer (6 μl), 0.1 M DTT (3 μl), dNTP mix (5 mM dATP, dGTP and dTTP and 2 mM dCTP) (1 μl), RNaseOut (1 μl), Superscript II reverse transcriptase (2 μl) and Cy-dCTP (3 μl). Reverse transcription was carried out at 42° C. for 1 hr. RNA was removed by addition of 10 μl NaOH (1 M) and incubation at 65° C. for 10 min. The samples were neutralised by addition of 10 μl HCl (1 M). Cy3 and Cy5 cDNA samples were mixed and immediately purified with a GFX PCR DNA and Gel Band Purification Kit (Amersham Biosciences).
Slides were pre-hybridised at 42° C. for 45 min in a solution containing 4×SSC+0.5% SDS+1% BSA and dried by centrifugation. Hybridizations were in a volume of 25 μl under a supported cover slip at 42° C. for 16-18 h at high humidity. The hybridisation mixture was labelled cDNA in a formamide-based hybridisation buffer (MWG—supplied with the pan-arrays). Cover slip and supports were gently removed (2×SSC in a wash tray) and arrays were washed by immersion into 2×SSC+0.1% SDS for 5 min, 1×SSC+0.1% SDS for 5 min, 0.5×SSC for 5 min and 1× millipore water for 10 sec and dried by centrifugation. Slides were scanned on a GMS 418 scanner to detect Cy3 and Cy5 fluorescence. Data analysis was carried out using ImaGene 5.0 and GeneSight 3.5 from BioDiscovery (www.biodiscovery.com). Two biological replicate experiments with four replicate hybridisations in each experiment were carried out for generation of data.
Pan E. coli K12 Arrays from MWG Biotech were used in this study (lot No.: 020206). The 4239 E. coli K12 specific oligonucleotide probes present on this glass-based DNA chip represent the complete Escherichia coli (K12) genome
Gene expression data was analyzed using the GeneSight 4.1.5 software from BioDiscovery. Data was prepared using local background correction, removal of flagged spots (contaminated background or signal), floor value raising data to a minimum value of 20, calculation of ratio, log(2) transformation of ratios, print-tip lowess normalization, and finally combination of replicate spot.

[1] = confidence level of 90%, relative to control strain expressing a peptide without antimicrobial activity

CC[C@H](C)[C@H](NC(=O)CNC(=O)[C@H](CCCCN)NC(=O)[C@H](CCCNC(=N)N)NC(=O)[C@@H](NC(=O)[C@@H](NC(=O)[C@H](CCCNC(=N)N)NC(=O)[C@H](CCCNC(=N)N)NC(=O)[C@H](CC(C)C)NC(=O)[C@H](CC(N)=O)NC(=O)[C@@H](N)CCCCN)[C@@H](C)CC)[C@@H](C)CC)C(=O)N[C@@H](Cc1c[nH]cn1)C(=O)N[C@H](C(=O)N[C@H](C(=O)N[C@@H](CCCCN)C(=O)N[C@@H](CCCCN)C(=O)N[C@@H](Cc1ccc(O)cc1)C(=O)NCC(=O)O)[C@@H](C)CC)[C@@H](C)CC [Novispirin G10] (H-KNLRRIIRKGIHIIKKYG-OH; N-terminus assumed)
ratio, gene tra8_1: −4.3
ratio, gene trpD: −3.4
ratio, gene tsx: −3.3
ratio, gene ugpA: 3.3
ratio, gene uvrY: 3.3
ratio, gene uxuB: 3.5
ratio, gene vacJ: 3.0
ratio, gene wcaD: −2.7
ratio, gene wcaJ: −2.8
ratio, gene wza: 3.3
ratio, gene xasA: 24.9
ratio, gene yaaI: 2.9
ratio, gene yabI: −2.6
ratio, gene yafC: −5.1
ratio, gene yagT: 3.3
ratio, gene yaiH: 6.1
ratio, gene yaiP: −3.9
ratio, gene ybaP: 8.4
ratio, gene ybaS: 8.8
ratio, gene ybaY: 9.9
ratio, gene ybbN: −2.6
ratio, gene ybbY: 4.4
ratio, gene ybdS: 4.2
ratio, gene ybeK: −3.0
ratio, gene ybeL: 3.6
ratio, gene ybfA: 3.5
ratio, gene ybgA: 4.2
ratio, gene ybhL: 9.3
ratio, gene ybhP: −5.1
ratio, gene ybhS: −2.6
ratio, gene ybiU: −3.7
ratio, gene ybiX: −2.7
ratio, gene ybjC: −2.7
ratio, gene ybjG: 5.8
ratio, gene ybjN: −2.7
ratio, gene ybjX: 5.3
ratio, gene ycaC: 7.4
ratio, gene ycbQ: −5.0
ratio, gene yccD: 4.9
ratio, gene yccM: 2.8
ratio, gene ycdQ: −2.8
ratio, gene ycfA: −3.4
ratio, gene ycfH: 5.3
ratio, gene ycfR: 2.8
ratio, gene ycgB: 4.5
ratio, gene ycgY: 3.0
ratio, gene yciE: 5.4
ratio, gene yciI: 5.1
ratio, gene yciR: 6.5
ratio, gene ycjF: −2.7
ratio, gene yddM: 3.0
ratio, gene ydhO: −2.8
ratio, gene yeaG: 12.0
ratio, gene yeaH: 2.8
ratio, gene yeaP: −2.6
ratio, gene yeaQ: 6.9
ratio, gene yedU: 3.7
ratio, gene yehT: −4.0
ratio, gene yehX: 5.6
ratio, gene yehY: 4.2
ratio, gene yehZ: 7.1
ratio, gene yeiQ: −2.7
ratio, gene yfbM: 4.9
ratio, gene yfcI: 3.1
ratio, gene yfiA: −3.6
ratio, gene yfiD: −2.6
ratio, gene ygaG: 3.8
ratio, gene ygaH: −3.3
ratio, gene ygaM: 7.9
ratio, gene ygaU: 5.1
ratio, gene ygcO: −5.7
ratio, gene ygeF: 5.2
ratio, gene ygfQ: 3.7
ratio, gene yggH: 5.7
ratio, gene ygiA: 4.2
ratio, gene ygiW: 5.2
ratio, gene yhaF: −2.6
ratio, gene yhcO: 4.4
ratio, gene yhfG: 3.4
ratio, gene yhgE: −2.9
ratio, gene yhhZ: −2.6
ratio, gene yhiE: 3.9
ratio, gene yhiF: 2.9
ratio, gene yhiW: 3.0
ratio, gene yhjX: −9.6
ratio, gene yi81_1: −3.2
ratio, gene yiaG: 10.1
ratio, gene yiaL: −2.9
ratio, gene yibI: −3.1
ratio, gene yidZ: −3.3
ratio, gene yieJ: −2.9
ratio, gene yieN: −3.8
ratio, gene yigW_1: 3.8
ratio, gene yihL: −8.0
ratio, gene yihM: −3.3
ratio, gene yihQ: 3.9
ratio, gene yijC: 4.1
ratio, gene yjbF: −3.5
ratio, gene yjbO: 8.3
ratio, gene yjcF: 3.1
ratio, gene yjdB: 4.5
ratio, gene yjiG: 3.1
ratio, gene yjiZ: 3.8
ratio, gene ykgE: −4.2
ratio, gene ykgF: −3.1
ratio, gene ylbB: −3.1
ratio, gene ylcC: −3.6
ratio, gene ylcD: 8.8
ratio, gene ymdD: −4.3
ratio, gene ymfJ: −3.4
ratio, gene ymfM: 5.1
ratio, gene ymgE: 3.9
ratio, gene yncB: 3.4
ratio, gene ynfL: 5.7
ratio, gene yoaE: 2.8
ratio, gene yodB: 6.2
ratio, gene yohC: 12.0
ratio, gene yohF: 2.8
ratio, gene yohM: 7.7
ratio, gene yqcD: −3.3
ratio, gene yqgA: −2.9
ratio, gene yqhD: −2.6
ratio, gene yqhE: 4.0
ratio, gene yqjC: 3.2
ratio, gene yqjD: 5.8
ratio, gene yqjE: 3.9
ratio, gene yqjF: 3.6
ratio, gene yqjG: 2.9
ratio, gene yrbF: 3.1
ratio, gene yrfG: −2.6
ratio, gene ysgA: 2.8
Fold, gene ais (AMP resistance): 14.1
Fold, gene b2253 (AMP resistance): 8.4
Fold, gene b2254 (AMP resistance): 5.5
Fold, gene b2256 (AMP resistance): 4.0
Fold, gene crcA (AMP resistance): 11.7
Fold, gene Asr (Acid shock): 19.2
Fold, gene Slp (Acid shock): 3.6
Fold, gene dksA (Acid shock): 4.1
Fold, gene dps (Acid shock): 4.4
Fold, gene gabP (Acid shock): 8.2
Fold, gene gabT (Acid shock): 6.5
Fold, gene gadC (Acid shock): 24.9
Fold, gene gadE (Acid shock): 3.9
Fold, gene gadW (Acid shock): 3.0
Fold, gene hdeA (Acid shock): 7.7
Fold, gene hdeB (Acid shock): 7.9
Fold, gene hdeD (Acid shock): 4.3
Fold, gene nmpC (Acid shock): −6.6
Fold, gene ybaS (Acid shock): 8.8
Fold, gene ycaC (Acid shock): 7.4
Fold, gene ydiZ (Acid shock): 9.1
Fold, gene yeaQ (Acid shock): 6.9
Fold, gene yebV (Acid shock): 6.9
Fold, gene yiaG (Acid shock): 10.1
Fold, gene amyA (Carbon metabolism): 5.8
Fold, gene b2097 (Carbon metabolism): 8.1
Fold, gene glk (Carbon metabolism): 3.4
Fold, gene sfcA (Carbon metabolism): 5.8
Fold, gene sfsA (Carbon metabolism): 6.4
Fold, gene talA (Carbon metabolism): 11.7
Fold, gene tktB (Carbon metabolism): 26.5
Fold, gene clpB (Heat shock): −3.6
Fold, gene dnaJ (Heat shock): −3.0
Fold, gene dnaK (Heat shock): −2.8
Fold, gene grpE (Heat shock): −3.0
Fold, gene hslU (Heat shock): −3.2
Fold, gene hslV (Heat shock): −3.0
Fold, gene ibpB (Heat shock): −6.5
Fold, gene lon (Heat shock): −2.9
Fold, gene mopA (Heat shock): −3.6
Fold, gene mopB (Heat shock): −9.1
Fold, gene hemL (Mg^2+-stimulon): 8.3
Fold, gene mgrB (Mg^2+-stimulon): 4.6
Fold, gene mgtA (Mg^2+-stimulon): 7.5
Fold, gene nagA (Mg^2+-stimulon): 3.7
Fold, gene phoP (Mg^2+-stimulon): 2.8
Fold, gene phoQ (Mg^2+-stimulon): 3.7
Fold, gene rstB (Mg^2+-stimulon): 3.6
Fold, gene nagB (Mg^2+-stlmulon(?)): 8.8
Fold, gene narU (Nitrogen assimilation): 15.1
Fold, gene narX (Nitrogen assimilation): −4.0
Fold, gene narY (Nitrogen assimilation): 11.0
Fold, gene narZ (Nitrogen assimilation): 4.9
Fold, gene nirB (Nitrogen assimilation): −2.9
Fold, gene nirC (Nitrogen assimilation): −3.0
Fold, gene nirD (Nitrogen assimilation): −5.7
Fold, gene nrfA (Nitrogen assimilation): −12.7
Fold, gene bolA (Osmotic shock): 13
Fold, gene dacC (Osmotic shock): 3.6
Fold, gene katE (Osmotic shock): 9.9
Fold, gene osmC (Osmotic shock): 7.2
Fold, gene osmE (Osmotic shock): 11.7
Fold, gene osmY (Osmotic shock): 6.4
Fold, gene otsA (Osmotic shock): 5.2
Fold, gene otsB (Osmotic shock): 5.6
Fold, gene proW (Osmotic shock): 7.9
Fold, gene yehX (Osmotic shock): 5.6
Fold, gene yehY (Osmotic shock): 4.2
Fold, gene yehZ (Osmotic shock): 7.1
Fold, gene pspA (Phage shock): 6.7
Fold, gene pspB (Phage shock): 6.9
Fold, gene pspC (Phage shock): 15.8
Fold, gene pspD (Phage shock): 13.5
Fold, gene pspE (Phage shock): 9.4
Fold, gene sfmC (Protein folding): 11.4
Fold, gene aer (Redox): 14.3
Fold, gene appB (Redox): 47.2
Fold, gene appC (Redox): 3.5
Fold, gene ndh (Redox): 3.1
number of genes down-regulated [1]: 144 genes
number of genes up-regulated [1]: 200 genes
